# Tests used:
# CTCL mouse model = experiment: CTCL mouse model; format: in vivo
# From the text: (§1) Bcl2 may be a patient stratification marker
# [1] = test system: Cell lines of mantle cell and follicular lymphoma; experiment: Sensitivity of mantle cell and follicular lymphoma cell lines; format: cell-based
# From the text: as §1
# [2] = test system: E[…]-myc mouse lymphoma model; experiment: E[…]-myc mouse lymphoma model; format: in vivo
# From the text: as §1
# HD-MY-Z = experiment: Single agent anti-tumor activity of LBH589 in Hodgkins Lymphoma cell lines in vitro (growth inhibition and cell kill); format: cell-based
# From the text: as §1
# (§2) Single agent anti-tumor activity of LBH589 in Hodgkins Lymphoma cell lines in vitro is outlined in table I.
# RPMI 6666 = experiment: as above; format: cell-based; conditions: RPMI 6666, Hodgkins Lymphoma
# From the text: as §1, §2
# L-428 = experiment: as above; format: cell-based; conditions: L-428, Hodgkins Lymphoma
# From the text: as §1, §2
# CTCL cell lines = experiment: Sensitivity of CTCL cell lines; format: cell-based
# From the text: as §1
# [3] = test system: Hodgkin lymphoma cell lines, RPMI6666, HD-MY-Z, and L428; experiment: Proliferation and viability of 3 Hodgkin lymphoma cell lines; format: cell-based; conditions: range over 3 HL cell lines; units printed in the value (picomolar, nanomolar)
# From the text: as §1
# [4] = Homo sapiens, read-out: IC50: Concentration of LBH589 required to inhibit growth of cell line by 50%
structure (smiles),measurement,setting,value
"Cc1[nH]c2ccccc2c1CCNCc1ccc(/C=C/C(=O)NO)cc1 [LBH589, N-hydroxy-3-[4-[[[2-(2-methyl-1H-indol-3-yl)-ethyl]-amino]methyl]phenyl]-2E-2-propenamide]",tumor regression,CTCL mouse model,profound tumor regression
same,sensitivity to LBH589,[1],extreme sensitivity
same,regression of lymphoma,[2],produces regression
same,survival,[2],extends survival
same,LD90: Concentration of LBH589 required to kill a cell line population by 90%,HD-MY-Z; in nM,">10,000"
same,IC50,HD-MY-Z; read-out: IC50: Concentration of LBH589 required to inhibit growth of cell line by 50%,50.8 nM
same,IC50,RPMI 6666; [4],0.2 nM
same,LD90: Concentration of LBH589 required to kill a cell line population by 90%,RPMI 6666; in nM,274.7
same,IC50,L-428; [4],10.5 nM
same,LD90: Concentration of LBH589 required to kill a cell line population by 90%,L-428,57.5 nM
same,sensitivity to LBH589,CTCL cell lines,extremely sensitive
same,IC50,[3],0.2 to 50 nM
